Here are results for 1 compound from patent publication US20040154048A1, “Activation of nuclear transfer embryos” (priority 2001, published 2004).

Marks after values point to notes of the source that are not given here.

Experiment [1] concerns IVM porcine oocytes. The experiment in a line: Parthenogenetic activation of IVM porcine oocytes, development to blastocyst. Format: cell-based. Conditions: 5 μM ionomycin 5 min in mTALP-PVA, 6-DMAP +. The method, then:
The preparation of in vitro matured (IVM) oocytes was essentially as described previously (Grupen et al, (1997) Reproduction Fertility Development 9:571-575). Ovaries from slaughtered prepubertal gilts were transported to the laboratory in Dulbecco's PBS supplemented with 0.6% (v/v) of an antibiotic solution (CSL Ltd) containing penicillin (10,000 U mL^−1), streptomycin (10,000 μg mL^−1) and fungizone (25 μg mL^−1) and maintained at 38° C. Antral follicles ([…] in diameter) were aspirated using a 21-gauge needle through which constant suction (1 L min^−1) was applied. The follicular contents were pooled in a collection tube. Cumulus-oocyte complexes (COCs) with at least three uniform layers of compact cumulus cells were recovered from the collected fluid, washed three times in OMM199a, transferred to 50 μl droplets (25 COCs per droplet) of OMM199a covered with mineral oil in a petrie dish (Becton Dickinson and Company, Plymouth, England) and incubated at 38.5° C. in a humidified atmosphere of 5% CO2 in air. After twenty two hours of maturation, expanded COCs were washed once in OMM199 without dibutyryl cAMP (OMM199b), transferred to 50 μl droplets of OMM199b and incubated for a further twenty four hours. At the end of the forty six hours maturation interval, the oocytes were treated with 0.5 mg mL^−1 hyaluronidase for one minute and then gently aspirated with a small bore glass pipette to remove the cumulus cells. Oocytes that had extruded a polar body were washed and kept in culture medium prior to activation.
The experiments hereafter were conducted with oocytes rather than nuclear transfer embryos. These experiments are termed parthenogenetic, since they are done without fertilized embryos. Parthenogenetic experiments are used routinely as a model system to investigate NT, largely because of the expense and additional experimental manipulation involved with NT embryos. Parthenogenetic experiments provide very useful information for the development of NT technology, and are directly predictive of NT outcomes.
Oocytes were activated forty six to forty eight hours after the start of maturation. Denuded oocytes that had extruded a polar body were washed and kept in modified TALP-PVA medium supplemented with 3.0 mM Ca-lactate (mTALP-PVA) for approximately one hour prior to activation. Oocytes were transferred to mTALP-PVA containing 5 μM ionomycin for five minutes. Oocytes were then washed twice and incubated in culture medium containing 2 mM 6-DMAP for three hours. The 6-DMAP treated oocytes were then washed twice and transferred to 50 μl droplets of the culture medium under mineral oil. In the ionomycin * treatment oocytes were not washed in media containing 6-DMAP.

For experiment [2], the system named is porcine oocytes. The following applies: ionomycin increased from 5 μM to 15 μM, low calcium levels; cited from earlier work.

As for `C[C@H](CCC(=O)O)C[C@H](C)C[C@H](C)C(=O)/C=C(\O)[C@H](C)C[C@H](C)C/C=C/[C@@H](C)[C@@H](O)[C@@H](C)[C@@H](O)C[C@@H]1CC[C@@](C)([C@H]2CC[C@@](C)([C@@H](C)O)O2)O1` [Ionomycin, ionomycin], the “Percentage developing to blastocyst, Day 6” value in experiment [1] was 49^c %; in experiment [1] (listed as Ionomycin*), 1^d %. Also, the “Percentage developing to blastocyst, Day 7” value in experiment [1] is reported as 51^c %; in experiment [1] (listed as Ionomycin*), 1^d %. In addition, the “oocytes developing parthenogenetically to blastocyst stage” value in experiment [2] was 23%.
